Values of other authors, collected in article PMC4043931 (Chembiochem : a European journal of chemical biology, 2014).

Key:
Conditions in all cases: listed for comparison; ref [7i], [10]
[1] = test system: Klebsiella. pneumoniae (ATCC 13383)
[2] = test system: Methicillin-resistant Staphylococcus epidermidis (RP62A)
[3] = test system: human red blood cells (hRBC's)
[4] = test system: Vancomycin-resistant Enterococcus faecalis (ATCC 700802)
[5] = test system: Pseudomonas aeruginosa (ATCC 27853)
[6] = test system: Methicillin-resistant Staphylococcus aureus (ATCC 33591)

In the case of Pexiganan, the “MIC K. pneumoniae” value [1] is given as 8 µg/mL, the “MIC S. epidermidis” value [2] is given as 8 µg/mL and the “Hemolysis HC50” value [3] is given as 120 µg/mL. The “MIC E. faecalis” value [4] was 32 µg/mL, the “MIC P. aeruginosa” value [5] was 16 µg/mL and the “MIC S. aureus” value [6] was 16 µg/mL.
